Assay: Particle size (mean/median diameter, D50) before and after coating
Format: physicochemical
Excerpt: On FIG. 1, the distribution of the particles before and after coating has been represented. As shown in this figure, the set of coated particles has the same distribution as that of the uncoated particles, showing not only that the particles were evenly coated, but also that the amount of coating is less. Thus, it is observed that the mean diameter of the particles before coating is equal to 176 micrometers, while the mean diameter of the coated particles is equal to 180 micrometers. […] FIG. 2 represents in parallel the distribution of the particles before and after coating. As shown in this figure, the set of coated particles has the same distribution as those of the uncoated particles, showing not only that the particles were evenly coated, but also that the amount of coating is less. Thus, it is observed that the mean diameter of the particles before coating is equal to 60 micrometers, while the mean diameter of the coated particles is equal to 75 micrometers. The table below represents the mean size of the ibuprofen particles (D50) before and after coating. FIG. 5 represents in parallel the distribution of the particles before and after coating.

Compound: CC(C)Cc1ccc(C(C)C(=O)O)cc1 (stereo not drawn) [5200I1014, ibuprofen]
- Mean (D50) size of the ibuprofen particles (Example 2: ibuprofen with PRECIROL in the proportion of 15%): 130.0 μm

Compound: CC(=O)Nc1ccc(O)cc1 [compound 99292402, Paracetamol]
- Median (D50) particle size (Example 4: paracetamol with Precirol ATO 5, theoretical 6% by mass): 326.1 μm

Compound: CC(C)Cc1ccc(C(C)C(=O)O)cc1 (stereo not drawn) [ibuprofen]
- mean diameter of the particles (Example 1: ibuprofen before and after coating with PRECIROL, coating 7% by weight): 176 micrometers

Reference: patent US20030170312A1, “Method for coating solid particles with a thermofusible agent, and resulting coated solid particles” (priority 2000, published 2003)
